We go through 39 molecules from US9902696B2, “1,4-substituted piperidine derivatives” (Cephalon, Inc., priority 2015, dated 2018).

SMILES strings stand for the structures. Where a name gives a salt, the structure may show the parent alone.

The target of the test is T1, recombinant human baculovirus-expressed GST-tagged FASN (Homo sapiens, UniProt P49327).
T1 construct: GST
T1 sequence (P49327 whole entry): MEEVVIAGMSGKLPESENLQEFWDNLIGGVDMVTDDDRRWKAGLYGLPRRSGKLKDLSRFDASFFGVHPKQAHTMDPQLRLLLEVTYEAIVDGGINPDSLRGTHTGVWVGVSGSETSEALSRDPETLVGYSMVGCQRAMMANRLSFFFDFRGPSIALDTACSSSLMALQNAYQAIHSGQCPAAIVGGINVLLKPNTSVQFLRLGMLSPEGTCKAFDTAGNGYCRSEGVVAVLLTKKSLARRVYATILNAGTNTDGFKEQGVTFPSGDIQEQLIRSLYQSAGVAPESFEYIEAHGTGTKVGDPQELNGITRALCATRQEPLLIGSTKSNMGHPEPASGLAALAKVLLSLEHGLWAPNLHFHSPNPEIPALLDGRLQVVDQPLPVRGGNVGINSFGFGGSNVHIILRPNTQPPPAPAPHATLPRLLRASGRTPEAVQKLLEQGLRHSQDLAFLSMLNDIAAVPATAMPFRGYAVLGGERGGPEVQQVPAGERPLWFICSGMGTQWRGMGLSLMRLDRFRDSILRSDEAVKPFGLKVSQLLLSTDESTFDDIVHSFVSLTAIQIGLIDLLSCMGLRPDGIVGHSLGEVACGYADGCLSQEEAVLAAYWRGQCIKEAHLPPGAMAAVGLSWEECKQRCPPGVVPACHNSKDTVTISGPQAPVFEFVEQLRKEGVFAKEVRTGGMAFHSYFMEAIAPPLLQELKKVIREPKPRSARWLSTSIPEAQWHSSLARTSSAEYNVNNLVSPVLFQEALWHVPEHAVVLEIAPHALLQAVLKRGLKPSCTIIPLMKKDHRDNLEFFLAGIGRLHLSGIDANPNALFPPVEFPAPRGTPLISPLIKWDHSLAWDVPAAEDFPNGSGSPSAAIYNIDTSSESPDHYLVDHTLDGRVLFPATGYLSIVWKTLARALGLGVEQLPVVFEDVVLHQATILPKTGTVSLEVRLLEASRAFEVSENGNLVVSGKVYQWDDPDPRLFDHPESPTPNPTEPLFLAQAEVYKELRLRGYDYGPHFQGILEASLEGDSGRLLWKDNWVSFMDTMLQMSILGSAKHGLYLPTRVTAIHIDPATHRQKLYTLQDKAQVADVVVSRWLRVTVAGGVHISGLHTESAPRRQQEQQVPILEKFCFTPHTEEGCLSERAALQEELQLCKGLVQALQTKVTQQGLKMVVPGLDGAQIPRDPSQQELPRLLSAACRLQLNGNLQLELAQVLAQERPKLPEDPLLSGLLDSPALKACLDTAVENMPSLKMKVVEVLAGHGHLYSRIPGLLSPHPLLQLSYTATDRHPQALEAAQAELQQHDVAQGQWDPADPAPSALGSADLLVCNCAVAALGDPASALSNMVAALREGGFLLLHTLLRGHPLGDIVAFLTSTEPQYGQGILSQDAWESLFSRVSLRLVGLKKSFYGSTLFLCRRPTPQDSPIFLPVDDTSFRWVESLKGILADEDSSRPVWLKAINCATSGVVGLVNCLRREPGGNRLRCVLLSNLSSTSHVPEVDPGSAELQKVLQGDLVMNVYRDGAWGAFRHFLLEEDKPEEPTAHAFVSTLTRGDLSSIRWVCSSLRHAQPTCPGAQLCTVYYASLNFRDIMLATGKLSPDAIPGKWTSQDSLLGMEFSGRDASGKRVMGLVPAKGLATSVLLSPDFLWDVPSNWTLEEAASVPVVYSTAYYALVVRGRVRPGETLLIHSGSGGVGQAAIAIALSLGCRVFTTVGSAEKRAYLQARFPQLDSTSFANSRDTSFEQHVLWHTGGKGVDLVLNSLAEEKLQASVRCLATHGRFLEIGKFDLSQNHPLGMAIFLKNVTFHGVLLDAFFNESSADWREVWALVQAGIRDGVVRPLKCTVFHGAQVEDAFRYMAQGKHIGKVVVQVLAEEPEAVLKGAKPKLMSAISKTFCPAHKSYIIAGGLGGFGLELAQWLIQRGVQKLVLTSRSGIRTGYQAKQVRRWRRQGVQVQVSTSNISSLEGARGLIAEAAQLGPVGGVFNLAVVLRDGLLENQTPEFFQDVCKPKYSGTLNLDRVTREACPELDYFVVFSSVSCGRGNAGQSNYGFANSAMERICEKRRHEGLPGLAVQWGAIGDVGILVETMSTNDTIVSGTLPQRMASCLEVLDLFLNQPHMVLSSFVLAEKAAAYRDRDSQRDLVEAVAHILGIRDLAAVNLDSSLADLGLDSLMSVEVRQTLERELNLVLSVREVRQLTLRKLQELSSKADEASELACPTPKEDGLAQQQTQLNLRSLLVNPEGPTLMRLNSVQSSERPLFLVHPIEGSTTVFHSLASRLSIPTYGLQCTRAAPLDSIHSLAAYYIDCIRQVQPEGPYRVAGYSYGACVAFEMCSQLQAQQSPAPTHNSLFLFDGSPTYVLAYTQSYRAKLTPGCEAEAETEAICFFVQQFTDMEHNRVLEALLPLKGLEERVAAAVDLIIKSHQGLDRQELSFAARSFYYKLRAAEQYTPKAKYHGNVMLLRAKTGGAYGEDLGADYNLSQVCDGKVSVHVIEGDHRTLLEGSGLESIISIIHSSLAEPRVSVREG
In words: FASN enzyme activity assay, fluorescence-based detection of CoA with CPM. The test is classed as biochemical. To be noted: 5 nM FASN, 150 μM NADPH, 10 μM acetyl-CoA, 25 μM malonyl-CoA, 90 minutes incubation; read-out: IC50 data for Compounds of Formulae I-V/V(a): Activity. In a few lines: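 Human GST-tagged FASN, baculovirus-expressed (5 nM), in 50 mM HEPES pH 7.5 with 150 μM NADPH, 10 μM acetyl-CoA, 25 μM malonyl-CoA, 0.5% DMSO; malonyl-CoA-started, 90 min. Released CoA detected with CPM (50 μM dilution), 30 min, fluorescence ex 390/em 530. IC50 from variable-slope sigmoidal fit of % inhibition versus log concentration.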
Take `Cc1nccc2c(C)c(-c3ccc(OC4CCN(C(=O)C5CC5)CC4)cc3)ccc12` [Example 473, Cyclopropyl-[4-[4-(1,5-dimethyl-6-isoquinolyl)phenoxy]-1-piperidyl]methanone HCl]: the IC50 was 0.1 to 0.999 µM.

For the molecule `Cc1nccc2c(C)c(-c3ccc(OC4CCN(C(=O)[C@H]5CCCO5)CC4)cc3)ccc12` [Example 474, [4-[4-(1,5-Dimethyl-6-isoquinolyl)phenoxy]-1-piperidyl]-[(2R)-tetrahydrofuran-2-yl]methanone, HCl], the IC50 fell in the range of 0.001 to 0.099 µM.

With `O=C([C@H]1CCCO1)N1CCC(Oc2ccc(-c3ccc4cccnc4c3C3CC3)cc2)CC1` [Example 475, [4-[4-(8-Cyclopropyl-7-quinolyl)phenoxy]-1-piperidyl]-[(2R)-tetrahydrofuran-2-yl]methanone, HCl], the IC50 lay in the range of 0.001 to 0.099 µM.

On to `CCc1cc2cc(-c3ccc(OC4CCN(C(=O)[C@H]5CCCO5)CC4)cc3)ccc2cn1` [Example 476, {4-[4-(3-Ethylisoquinolin-6-yl)-phenoxy]-piperidin-1-yl}-(R)-tetrahydro-furan-2-yl-methanone], for which the IC50 lay in the range of 0.001 to 0.099 µM.

With `O=C(C1CC1)N1CCC(Oc2ccc(-c3cnc4cc(F)ccc4c3)cc2)CC1` [Example 477, Cyclopropyl-{4-[4-(7-fluoroquinolin-3-yl)-phenoxy]-piperidin-1-yl}-methanone], the IC50 was in the range of 0.001 to 0.099 µM.

Regarding `CCC(=O)N1CCC(Oc2ccc(-c3cnc4cc(F)ccc4c3)cc2)CC1` [Example 478, 1-{4-[4-(7-Fluoroquinolin-3-yl)-phenoxy]-piperidin-1-yl}-propan-1-one], the IC50 is 0.001 to 0.099 µM.

As to `O=C([C@H]1CCCO1)N1CCC(Oc2ccc(-c3cnc4cc(F)ccc4c3)cc2)CC1` [Example 479, {4-[4-(7-Fluoroquinolin-3-yl)-phenoxy]-piperidin-1-yl}-(R)-tetrahydro-furan-2-yl-methanone], the IC50 fell in the range of 0.001 to 0.099 µM.

Turning to `O=C([C@H]1CCCO1)N1CCC(Oc2ccc(-c3ccc4cnc(C5CC5)cc4c3)cc2)CC1` [Example 480, {4-[4-(3-Cyclopropylisoquinolin-6-yl)-phenoxy]-piperidin-1-yl}-(R)-tetra-hy drofuran-2-yl-methanone], the IC50 is 0.001 to 0.099 µM.

In the case of `Cc1nccc2cc(-c3ccc(OC4CCN(C(=O)C5CC5)CC4)cc3)ccc12` [Example 481, Cyclopropyl-{4-[4-(1-methylisoquinolin-6-yl)-phenoxy]-piperidin-1-yl}-methanone], the IC50 fell in the range of 0.001 to 0.099 µM.

In the case of `Cc1ccc2cc(-c3ccc(OC4CCN(C(=O)[C@H]5CCCO5)CC4)cc3)cnc2c1` [Example 482], the IC50 lay within 0.001 to 0.099 µM.

As to `CCC(=O)N1CCC(Oc2ccc(-c3cnc4ccc(C)cc4c3)cc2)CC1` [Example 483, 1-{4-[4-(6-Methylquinolin-3-yl)-phenoxy]-piperidin-1-yl}-propan-1-one, HCl], the IC50 lay in the range of 0.001 to 0.099 µM.

As to `Cc1ccc2ncc(-c3ccc(OC4CCN(C(=O)C5CC5)CC4)cc3)cc2c1` [Example 484, Cyclopropyl-{4-[4-(6-methylquinolin-3-yl)-phenoxy]-piperidin-1-yl}-methanone, HCl], the IC50 fell in the range of 0.1 to 0.999 µM.

On to `Cc1ccc2ncc(-c3ccc(OC4CCN(C(=O)[C@H]5CCCO5)CC4)cc3)cc2c1` [Example 485, {4-[4-(6-Methylquinolin-3-yl)-phenoxy]-piperidin-1-yl}-(R)-tetrahydro-furan-2-yl-methanone, HCl], for which the IC50 was 0.001 to 0.099 µM.

Turning to `CCC(=O)N1CCC(Oc2ccc(-c3cnc4c(C)cccc4c3)cc2)CC1` [Example 486, 1-{4-[4-(8-Methylquinolin-3-yl)-phenoxy]-piperidin-1-yl}-propan-1-one, HCl], the IC50 is 0.001 to 0.099 µM.

`Cc1cccc2cc(-c3ccc(OC4CCN(C(=O)C5CC5)CC4)cc3)cnc12` [Example 487, Cyclopropyl-{4-[4-(8-methylquinolin-3-yl)-phenoxy]-piperidin-1-yl}-methanone]: the IC50 was in the range of 0.001 to 0.099 µM.

Turning to `Cc1cccc2cc(-c3ccc(OC4CCN(C(=O)[C@H]5CCCO5)CC4)cc3)cnc12` [Example 488, {4-[4-(8-Methylquinolin-3-yl)-phenoxy]-piperidin-1-yl}-(R)-tetrahydro-furan-2-yl-methanone], the IC50 is 0.001 to 0.099 µM.

Take `COc1ccc(-c2ccc(OC3CCN(C(=O)OC(C)(C)C)CC3)cc2)cc1OC` [Example 489, 4-(3′,4′-Dimethoxybiphenyl-4-yloxy)-piperidine-1-carboxylic acid t-butyl ester]: the IC50 lay in the range of 1 to 10 µM.

Regarding `CC(C)(C)OC(=O)N1CCC(Oc2ccc(-c3ccc(C#N)cc3)cc2)CC1` [Example 490, 4-(4′-Cyano-biphenyl-4-yloxy)-piperidine-1-carboxylic acid t-butyl ester], the IC50 was in the range of 1 to 10 µM.

Consider `CCC(=O)N1CCC(Oc2ccc(-c3ccc(OC)c(OC)c3)cc2)CC1` [Example 491, 1-[4-(3′,4′-Dimethoxy-biphenyl-4-yloxy)-piperidin-1-yl]-propan-1-one], for which the IC50 lay in the range of 0.1 to 0.999 µM.

For the molecule `COc1ccc(-c2ccc(OC3CCN(C(=O)C(C)C)CC3)cc2)cc1OC` [Example 492, 1-[4-(3′,4′-Dimethoxybiphenyl-4-yloxy)-piperidin-1-yl]-2-methyl-propan-1-one], the IC50 was 1 to 10 µM.

As for `CCC(=O)N1CCC(Oc2ccc(-c3ccc(C#N)cc3)cc2)CC1` [Example 493, 4′-(1-Propionyl-piperidin-4-yloxy)-biphenyl-4-carbonitrile], the IC50 is 1 to 10 µM.

As to `CC(C)C(=O)N1CCC(Oc2ccc(-c3ccc(C#N)cc3)cc2)CC1` [Example 494, 4′-(1-Isobutyrylpiperidin-4-yloxy)-biphenyl-4-carbonitrile], the IC50 was 1 to 10 µM.

Consider `N#Cc1ccc(-c2ccc(OC3CCN(C(=O)C4CC4)CC3)cc2)cc1` [Example 495, 4′-(1-Cyclopropanecarbonyl-piperidin-4-yloxy)-biphenyl-4-carbonitrile], for which the IC50 was in the range of 0.1 to 0.999 µM.

`CCC(=O)N1CCC(Oc2cccc(-c3cnc4ccccc4c3)c2)CC1` [Example 496, 1-[4-(3-Quinolin-3-yl-phenoxy)-piperidin-1-yl]-propan-1-one]: the IC50 lay within 1 to 10 µM.

In the case of `O=C(C1CC1)N1CCC(Oc2cccc(-c3cnc4ccccc4c3)c2)CC1` [Example 497, Cyclopropyl-[4-(3-quinolin-3-yl-phenoxy)-piperidin-1-yl]-methanone], the IC50 was in the range of 1 to 10 µM.

On to `CCC(=O)N1CCC(Oc2ccc(-c3cnc(OC)c(OC)c3)cc2)CC1` [Example 498, 1-{4-[4-(5,6-Dimethoxypyridin-3-yl)-phenoxy]-piperidin-1-yl}-propan-1-one], for which the IC50 fell in the range of 1 to 10 µM.

Take `COc1cc(-c2ccc(OC3CCN(C(=O)C4CC4)CC3)cc2)cnc1OC` [Example 499, Cyclopropyl-{4-[4-(5,6-dimethoxypyridin-3-yl)-phenoxy]-piperidin-1-yl}-methanone]: the IC50 is 1 to 10 µM.

`CCC(=O)N1CCC(Oc2ccc(-c3ccc(Cl)c(Cl)c3)cc2)CC1` [Example 500, 1-[4-(3′,4′-Dichlorobiphenyl-4-yloxy)-piperidin-1-yl]-propan-1-one]: the IC50 was 1 to 10 µM.

For `O=C(C1CC1)N1CCC(Oc2ccc(-c3ccc(Cl)c(Cl)c3)cc2)CC1` [Example 501, Cyclopropyl-[4-(3′,4′-dichlorobiphenyl-4-yloxy)-piperidin-1-yl]-methanone], the IC50 lay in the range of 1 to 10 µM.

Consider `CCC(=O)N1CCC(Oc2ccc(-c3ccc4c(c3)OCCO4)cc2)CC1` [Example 502, 1-{4-[4-(2,3-Dihydro-1,4-benzodioxin-6-yl)-phenoxy]-piperidin-1-yl}-propan-1-one], for which the IC50 was in the range of 1 to 10 µM.

As for `O=C(C1CC1)N1CCC(Oc2ccc(-c3ccc4c(c3)OCCO4)cc2)CC1` [Example 503, Cyclopropyl-{4-[4-(2,3-dihydro-1,4-benzodioxin-6-yl)-phenoxy]-piperidin-1-yl}-methanone], the IC50 lay in the range of 1 to 10 µM.

Take `CCC(=O)N1CCC(Oc2ccc(-c3ccc(OCc4ccccc4)cc3F)cc2)CC1` [Example 504, 1-[4-(4′-Benzyloxy-2′-fluoro-biphenyl-4-yloxy)-piperidin-1-yl]-propan-1-one]: the IC50 lay within 1 to 10 µM.

Regarding `O=C(C1CC1)N1CCC(Oc2ccc(-c3ccc(OCc4ccccc4)cc3F)cc2)CC1` [Example 505, [4-(4′-Benzyloxy-2′-fluorobiphenyl-4-yloxy)-piperidin-1-yl]-cyclopropyl-methanone], the IC50 is 1 to 10 µM.

In the case of `CCC(=O)N1CCC(Oc2ccc(-c3cc(F)cc(OCc4ccccc4)c3)cc2)CC1` [Example 506, 1-[4-(5′-Benzyloxy-3′-fluorobiphenyl-4-yloxy)-piperidin-1-yl]-propan-1-one], the IC50 lay in the range of 1 to 10 µM.

On to `O=C(C1CC1)N1CCC(Oc2ccc(-c3cc(F)cc(OCc4ccccc4)c3)cc2)CC1` [Example 507, [4-(5′-Benzyloxy-3′-fluorobiphenyl-4-yloxy)-piperidin-1-yl]-cyclopropyl-methanone], for which the IC50 lay within 1 to 10 µM.

Turning to `CCC(=O)N1CCC(Oc2ccc(-c3ccc(Oc4ccccc4)cc3)cc2)CC1` [Example 508, 1-[4-(4′-Phenoxybiphenyl-4-yloxy)-piperidin-1-yl]-propan-1-one], the IC50 is 1 to 10 µM.

Regarding `O=C(C1CC1)N1CCC(Oc2ccc(-c3ccc(Oc4ccccc4)cc3)cc2)CC1` [Example 509, Cyclopropyl-[4-(4′-phenoxybiphenyl-4-yloxy)-piperidin-1-yl]-methanone], the IC50 was 1 to 10 µM.

In the case of `CCC(=O)N1CCC(Oc2ccc(-c3cccc(Oc4ccccc4)c3)cc2)CC1` [Example 510, 1-[4-(3′-Phenoxybiphenyl-4-yloxy)-piperidin-1-yl]-propan-1-one], the IC50 fell in the range of 1 to 10 µM.

Consider `O=C(C1CC1)N1CCC(Oc2ccc(-c3cccc(Oc4ccccc4)c3)cc2)CC1` [Example 511, Cyclopropyl-[4-(3′-phenoxybiphenyl-4-yloxy)-piperidin-1-yl]-methanone], for which the IC50 was 1 to 10 µM.
